The subject of data set [1] is Carrageenan-induced Paw Edema in rats. Briefly: Carrageenan-induced paw edema test. As to conditions: Rattus norvegicus, oral, 3 hours after carrageenan, read-out: Inhibition Rate (%). It counts as in vivo, Wistar-Imamichi rats. The method, then:
The same test compounds were subjected to the test as those in the Randall-Selitto test of Experiment 3. Wistar-Imamichi rats (males, 6 week old, body weights: 110-120 g) were used in this test.
The method of Winter, et al. [Proc. Soc. Exp. Biol. Med. 111, 544-547, (1962)] was slightly modified to perform the test [Sankyo Annual Research Report 39, 77-111, (1989)]. The rats were fasted for 16 hours prior to use. Inflammatory edema was induced by the subcutaneous injection of 0.05 ml of a 1% carrageenan (Viscarin 402) solution into the right hind paw of the animal. The test compounds were administered orally 30 minutes before injection of carrageenan. The volume of the right hind foot was measured with a Plethysmometer (Trade mark) (Ugo-Basile Co.) just before administration of the test compound and 3 hours after injection of carrageenan to determine the edema intensity [(right foot volume after 3 hours/right foot volume before injection)-1].
For orientation: In the carrageenan paw model, swelling and tenderness develop within hours.

Data set [2] deals with yeast-inflamed pain in rats. Briefly: Analgesic effect on yeast-inflamed pain in rats (Randall-Selitto method). It is filed as in vivo, Wistar-Imamichi rats. Conditions: Rattus norvegicus, oral, pain threshold 0.5, 1 and 2 hours after administration, read-out: Efficacy Rate (No. of animals in which drug was effective/No. of animals used in test) (converted). The protocol:
The compound was suspended in 0.5%tragacanth and administered orally at a volume of 5 ml/kg. The control group was administered with 0.5% tragacanth only as a vehicle.
Wistar-Imamichi rats (males, 5 week old, body weights: 80-100 g) were used in this test.
The test was conducted in accordance with the method of Winter and Flataker [J. Pharmacol. Exp. Ther. 150, 165-171, (1965)], which is a modification of the original method of Randall and Selitto [Arch. Int. Pharmacodyn. Ther. 111, 405-419, (1957)]. The rats were fasted for 16 hours prior to use. Inflammation was induced by subcutaneous injection of 0.1 ml of a suspension of 20% beer yeast (Sigma) into the right hind footpad of the animal. After 4.5 hours, increasing pressure was applied to the inflamed footpad at a constant speed using an Analgesy meter (Trade mark) (Ugo-Basile Co.).
First the average of pain threshold values at each time point (0.5, 1, and 2 hr) was calculated in a control group. If a pain threshold value exceeded 2 times the control average value at the same time point even once in the drug-treated groups, then the animal was considered to indicate efficacy. Efficacy rates of the drug were estimated by the evaluation method of Blake [J. Pharm. Pharm. 19, 367-373, (1967)].

The next data set has as its system gastric mucosa. Briefly: Irritative effect on gastric mucosa. As to conditions: oral; dose producing 50% incidence of gastric ulcers, 3.5 hours after dosing. It is filed as in vivo, Wistar rats. The method, then:
Experiments were performed according to the method described by Jahn and Adrian [Arzneim.-Forsch. 19, 36, (1969)]. Male Wistar rats weighing approximately 120 g were fasted for 16 hours before the experiment. The drugs were administered orally to rats as described in Experiment 3. Three and the half hours after dosing, the animals were killed under ether-anesthesia and the stomachs were placed into 1% of formalin. The stomach was opened by cutting along the greater curvature and the number and length of lesions were counted under a microscope (6.3×10). The ulcerogenicity in each animal was assessed according to Hitchens et. al. [Pharmacologist 9, 242, (1967)]. Incidence was determined as the rate of rats with 4 or more ulcers of more than 0.5 mm length, and UD50's (doses producing 50% incidence) were calculated from the incidence and the dose by probit (=probability unit) method.

For the compound `Cc1ccc(-c2c(C)ccn2-c2ccc(S(N)(=O)=O)cc2)cc1` [Example 17, 3-Methyl-2-(4-methylphenyl)-1-(4-sulfamoylphenyl) pyrrole], the inhibition in vivo at 50 mg/kg in data set [1] amounted to 67%.

For `Cc1ccc(-c2cc(C)cn2-c2ccc(S(N)(=O)=O)cc2)cc1` [Example 18, 4-Methyl-2-(4-methylphenyl)-1-(4-sulfamoylphenyl) pyrrole], in data set [2], the responders at 12.5 mg/kg was 100%. Further, the inhibition in vivo at 50 mg/kg in data set [1] was determined as 53%.

Regarding `NS(=O)(=O)c1ccc(-c2cccn2-c2ccc(F)cc2)cc1` [Example 19, 1-(4-Fluorophenyl)-2-(4-sulfamoylphenyl)pyrrole], the responders at 12.5 mg/kg in data set [2] is 100%. The inhibition in vivo at 50 mg/kg in data set [1] turned out to be 65%.

As for `CCc1cc(-c2ccc(OC)cc2)n(-c2ccc(S(N)(=O)=O)cc2)c1` [Example 64, 4-Ethyl-2-(4-methoxyphenyl)-1-(4-sulfamoylphenyl) pyrrole], the inhibition in vivo at 50 mg/kg in data set [1] was 60%.

For `CSc1ccc(-c2cc(C)cn2-c2ccc(S(N)(=O)=O)cc2)cc1` [Example 66, 4-Methyl-2-(4-methylthiophenyl)-1-(4-sulfamoylphenyl)pyrrole], the responders at 12.5 mg/kg in data set [2] was 100%. In addition, in the data set with gastric mucosa, the “UD50” value is reported as >100 mg/kg.

With `COc1ccc(-c2cc(C)cn2-c2ccc(S(N)(=O)=O)cc2)cc1C` [Example 69, 4-Methyl-2-(4-methoxy-3-methylphenyl)-1-(4-sulfamoylphenyl)pyrrole], in data set [2], the responders at 12.5 mg/kg is 100%. Moreover, in data set [1], the inhibition in vivo at 50 mg/kg was found to be 55%. The “UD50” value with gastric mucosa is listed as >100 mg/kg.

Take `Cc1cc(-c2ccc(Cl)c(Cl)c2)n(-c2ccc(S(N)(=O)=O)cc2)c1` [Example 70, 2-(3,4-Dichlorophenyl)-4-methyl-1-(4-sulfamoylphenyl)pyrrole]: the “UD50” value in the data set with gastric mucosa is >100 mg/kg.

For the compound `COc1ccc(-c2cc(C)cn2-c2ccc(S(N)(=O)=O)cc2)cc1F` [Example 71, 2-(3-Fluoro-4-methoxylphenyl)-4-methyl-1-(4-sulfamoylphenyl)pyrrole], the responders at 12.5 mg/kg in data set [2] is 100%. Also, the “UD50” value in the data set on gastric mucosa is reported as >100 mg/kg.

With `Cc1cc(-c2ccc(S(N)(=O)=O)cc2)n(-c2ccc(F)cc2F)c1` [Example 75, 1-(2,4-Difluorophenyl)-4-methyl-2-(4-sulfamoylphenyl)pyrrole], in data set [1], the inhibition in vivo at 50 mg/kg came to 57%.

Take `COc1ccc(-c2cccn2-c2ccc(S(N)(=O)=O)cc2)cc1` [Example 76, 2-(4-Methoxyphenyl)-1-(4-sulfamoylphenyl)pyrrole]: the inhibition in vivo at 50 mg/kg in data set [1] amounted to 56%. Moreover, the “UD50” value with gastric mucosa is on record as >100 mg/kg.

Regarding `Cc1cc(-c2ccccc2)n(-c2ccc(S(N)(=O)=O)cc2)c1` [Example 77, 4-Methyl-2-phenyl-1-(4-sulfamoylphenyl)pyrrole], the “UD50” value in the data set on gastric mucosa is on record as >100 mg/kg.

With `COc1ccc(-c2cc(C)cn2-c2ccc(S(N)(=O)=O)cc2)cc1Cl` [Example 79, 2-(3-Chloro-4-methoxyphenyl)-4-methyl-1-(4-sulfamoylphenyl)pyrrole], the responders at 12.5 mg/kg in data set [2] is 100%. Moreover, the “UD50” value in the data set on gastric mucosa is listed as >100 mg/kg.

`COc1ccc(-c2cc(C)cn2-c2ccc(S(=O)(=O)NC(C)=O)cc2)cc1` [Example 82, 1-(4-Acetylaminosulfonylphenyl)-2-(4-methoxyphenyl)-4-methylpyrrole]: the responders at 12.5 mg/kg in data set [2] is 100%. For the same compound, in data set [1], the inhibition in vivo at 50 mg/kg came to 78%. For the same compound, in the data set with gastric mucosa, the “UD50” value is reported as >100 mg/kg.

In the case of `CC(=O)NS(=O)(=O)c1ccc(-n2cc(C)cc2-c2ccc(C)c(C)c2)cc1` [Example 83, 1-(4-Acetylaminosulfonylphenyl)-2-(3,4-dimethylphenyl)-4-methylpyrrole], the responders at 12.5 mg/kg in data set [2] is 100%. In data set [1], the inhibition in vivo at 50 mg/kg turned out to be 70%.

For the compound `CCSc1ccc(-n2cc(C)cc2-c2ccc(S(N)(=O)=O)cc2)cc1` [Example 85, 1-(4-Ethylthiophenyl)-4-methyl-2-(4-sulfamoylphenyl)pyrrole], the responders at 12.5 mg/kg in data set [2] is 100%. The inhibition in vivo at 50 mg/kg in data set [1] was found to be 73%.

On to `Cc1cc(-c2ccc(S(N)(=O)=O)cc2)n(-c2ccc(C)c(C)c2)c1` [Example 86, 4-Methyl-1-(3,4-dimethylphenyl)-2-(4-sulfamoylphenyl)pyrrole], for which, in data set [2], the responders at 12.5 mg/kg is 100%. In data set [1], the inhibition in vivo at 50 mg/kg was 64%.

`Cc1cc(C)cc(-c2cc(C)cn2-c2ccc(S(N)(=O)=O)cc2)c1` [Example 87, 4-Methyl-2-(3,5-dimethylphenyl)-1-(4-sulfamoylphenyl)pyrrole]: the responders at 12.5 mg/kg in data set [2] is 100%.

As for `CSc1ccc(-c2c(C)ccn2-c2ccc(S(N)(=O)=O)cc2)cc1` [Example 88, 3-Methyl-2-(4-methylthiophenyl)-1-(4-sulfamoylphenyl)pyrrole], in data set [2], the responders at 12.5 mg/kg is 100%. In data set [1], the inhibition in vivo at 50 mg/kg turned out to be 61%.

Regarding `Cc1cc(-c2ccc(S(N)(=O)=O)cc2)n(-c2ccc([S+](C)[O-])cc2)c1` (centres unmarked) [Example 96, 4-Methyl-1-(4-methylsulfinylphenyl)-2-(4-sulfamoylphenyl)pyrrole], the inhibition in vivo at 50 mg/kg in data set [1] stood at 60%.

With `COc1ccc(-n2c(Cl)ccc2-c2ccc(S(N)(=O)=O)cc2)cc1` [Example 97, 5-Chloro-1-(4-methoxyphenyl)-2-(4-sulfamoylphenyl)pyrrole], in data set [2], the responders at 12.5 mg/kg was 100%. Besides, the inhibition in vivo at 50 mg/kg in data set [1] amounted to 63%.

On to `COc1ccc(-n2c(Br)ccc2-c2ccc(S(N)(=O)=O)cc2)cc1` [Example 98, 5-Bromo-1-(4-methoxyphenyl)-2-(4-sulfamoylphenyl)pyrrole], for which, in data set [1], the inhibition in vivo at 50 mg/kg was found to be 55%.

Consider `COc1ccc(-n2c(-c3ccc(S(N)(=O)=O)cc3)cc(C)c2Cl)cc1` [Example 99, 5-Chloro-1-(4-methoxyphenyl)-4-methyl-2-(4-sulfamoylphenyl)pyrrole], for which, in data set [1], the inhibition in vivo at 50 mg/kg came to 57%.

In the case of `CCOc1ccc(-n2c(Cl)ccc2-c2ccc(S(N)(=O)=O)cc2)cc1` [Example 100, 5-Chloro-1-(4-ethoxyphenyl)-2-(4-sulfamoylphenyl) pyrrole], the responders at 12.5 mg/kg in data set [2] was 100%. In data set [1], the inhibition in vivo at 50 mg/kg is 57%.

Consider `CSc1ccc(-n2c(Cl)ccc2-c2ccc(S(N)(=O)=O)cc2)cc1` [Example 101, 5-Chloro-1-(4-methylthiophenyl)-2-(4-sulfamoylphenyl)pyrrole], for which, in data set [2], the responders at 12.5 mg/kg was 100%.

As for `Cc1cc(-c2ccc(S(N)(=O)=O)cc2)n(-c2ccc(S)cc2)c1` [Example 129, 1-(4-Mercaptophenyl)-4-methyl-2-(4-sulfamoylphenyl)pyrrole], the responders at 12.5 mg/kg in data set [2] was 100%. Also, the inhibition in vivo at 50 mg/kg in data set [1] turned out to be 62%.

Regarding `CC(=O)Sc1ccc(-n2cc(C)cc2-c2ccc(S(N)(=O)=O)cc2)cc1` [Example 130, 1-(4-Acetylthiophenyl)-4-methyl-2-(4-sulfamoylphenyl)pyrrole], the responders at 12.5 mg/kg in data set [2] is 20%. For the same compound, in data set [1], the inhibition in vivo at 50 mg/kg came to 73%.
